Experimental data: US10597388B2, “Pyridazinone herbicides” (FMC CORPORATION, priority 2014, dated 2020)

Columns and labels:
Format in all cases: in vivo
[1] = tested on: oat, wild (wild oat, Avena fatua); assay: Test C greenhouse herbicide test, postemergence
Excerpt: (§1) At the same time, plants selected from these crop and weed species and also chickweed (common chickweed, Stellaria media), kochia (Kochia scoparia), and oat, wild (wild oat, Avena fatua), were planted in pots containing Redi-Earth® planting medium (Scotts Company, 14111 Scottslawn Road, Marysville, Ohio 43041) comprising spaghnum peat moss, vermiculite, wetting agent and starter nutrients and treated with postemergence applications of test chemicals formulated in the same manner. Plants ranged in height from 2 to 18 cm (1- to 4-leaf stage) for postemergence treatments. Treated plants and controls were maintained in a greenhouse for 13 to 15 d, after which time all species were compared to controls and visually evaluated. Plant response ratings, summarized in Table C, are based on a scale of 0 to 100 where 0 is no effect and 100 is complete control. A dash (-) response means no test result.

kochia (Kochia scoparia) [2] = assay: Test C greenhouse herbicide test, postemergence
Excerpt: as §1

[3] = tested on: ragweed (common ragweed, Ambrosia elatior); assay: Test A greenhouse herbicide test, pre- and postemergence
In short: (§2)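 Seeds sown in loam–sand blend got a preemergence directed soil spray of compound in non-phytotoxic solvent with surfactant. Postemergence treatment was given at 2–10 cm, one- to two-leaf stage. After ~10 d in greenhouse, injury was rated visually vs untreated controls, 0 (no effect) to 100 (complete control).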

[4] = tested on: foxtail, giant (giant foxtail, Setaria faberii); assay: as above
In short: as §2

[5] = tested on: barnyardgrass (Echinochloa crus-galli); assay: as above
In short: as §2

corn (Zea mays) = assay: as above; details: Postemergence
In short: as §2

[6] = tested on: pigweed (Amaranthus retroflexus); assay: as above
In short: as §2

kochia (Kochia scoparia) [7] = assay: as above
In short: as §2

[8] = tested on: wheat (Triticum aestivum); assay: as above; details: Postemergence
In short: as §2

[9] = Postemergence, 31 g ai/ha, scale 0 to 100 (0 no effect, 100 complete control)
[10] = Postemergence, 62 g ai/ha, 0 to 100 scale (0 no effect, 100 complete control)
[11] = Postemergence, 250 g ai/ha, scale 0 to 100, 0 no effect, 100 complete control, 13 to 15 d
[12] = postemergence, 125 g ai/ha, scale 0 to 100, 0 no effect, 100 complete control
[13] = Postemergence, 125 g ai/ha, 0 to 100 scale where 0 is no effect and 100 is complete control
[14] = Postemergence, 500 g ai/ha, visual rating after approx. 10 d, 0 to 100 scale (0 no effect, 100 complete control)
[15] = Preemergence, 125 g ai/ha, 0 to 100 scale where 0 is no effect and 100 is complete control
[16] = Preemergence, 500 g ai/ha, 0 to 100 scale where 0 is no effect and 100 is complete control
[17] = 125 g ai/ha, 0 to 100 scale where 0 is no effect and 100 is complete control
[18] = 500 g ai/ha, visual rating after approx. 10 d, 0 to 100 scale (0 no effect, 100 complete control)
[19] = Postemergence, 8 g ai/ha, scale 0 to 100 (0 no effect, 100 complete control)
[20] = Postemergence, 16 g ai/ha, scale 0 to 100 (0 no effect, 100 complete control)

SMILES	Plant response rating, Oat, Wild [1, 9]	Plant response rating, Kochia (kochia (Kochia scoparia) [2]; [9])	Plant response rating, Ragweed [3, 13]	Plant response rating, Ragweed [3, 14]	Plant response rating, Ragweed [3, 16]	Plant response rating, Foxtail, Giant [4, 13]	Plant response rating, Foxtail, Giant [4, 14]	Foxtail, Giant plant response rating [4, 15]	Plant response rating, Foxtail, Giant [4, 16]	Plant response rating, Barnyardgrass [5, 13]	Plant response rating, Barnyardgrass [5, 14]	Barnyardgrass plant response rating [5, 15]	Plant response rating, Barnyardgrass [5, 16]	Plant response rating, Corn (corn (Zea mays); [17])	Plant response rating, Corn (corn (Zea mays); [18])	Plant response rating, Pigweed [6, 13]	Plant response rating, Pigweed [6, 14]	Pigweed plant response rating [6, 15]	Plant response rating, Pigweed [6, 16]	Plant response rating, Kochia (kochia (Kochia scoparia) [7]; [13])	also measured
COC(=O)Oc1c(OC)nn(C)c(=O)c1-c1c(C)ccc2ccccc12 [Compound 136]	50	95	100	100	90	90	100	80	100	20	100	10	80	30	30	90	100	100	100	100	Oat, Wild plant response rating [1, 10]: 75; Plant response rating, Oat, Wild [1, 11]: 90; Oat, Wild plant response rating [1, 12]: 85; Kochia plant response rating (kochia (Kochia scoparia) [2]; [10]): 95; Plant response rating, Kochia (kochia (Kochia scoparia) [2]; [11]): 100; Kochia plant response rating (kochia (Kochia scoparia) [2]; [12]): 100; Ragweed plant response rating [3, 15]: 80; Plant response rating, Kochia (kochia (Kochia scoparia) [7]; [14]): 100; Kochia plant response rating (kochia (Kochia scoparia) [7]; [15]): 60; Plant response rating, Kochia (kochia (Kochia scoparia) [7]; [16]): 90; Plant response rating, Wheat [8, 17]: 0; Plant response rating, Wheat [8, 18]: 30
Cc1ccc2ccc(Cl)cc2c1-c1c(O)c(C)nn(C)c1=O [Compound 144]	90	98	100	100	100	100	100	100	100	100	100	90	100	60	90	100	100	100	100	100	Oat, Wild plant response rating [1, 19]: 80; Plant response rating, Oat, Wild [1, 19]: 90; Plant response rating, Oat, Wild [1, 20]: 90; Kochia plant response rating (kochia (Kochia scoparia) [2]; [19]): 90; Plant response rating, Kochia (kochia (Kochia scoparia) [2]; [19]): 90; Plant response rating, Kochia (kochia (Kochia scoparia) [2]; [20]): 98; Plant response rating, Kochia (kochia (Kochia scoparia) [7]; [14]): 100; Kochia plant response rating (kochia (Kochia scoparia) [7]; [15]): 100; Plant response rating, Kochia (kochia (Kochia scoparia) [7]; [16]): 100; Plant response rating, Wheat [8, 17]: 90; Plant response rating, Wheat [8, 18]: 100
COC(=O)Oc1c(C)nn(C)c(=O)c1-c1ccc(Br)c2ccccc12 [Compound 145]	95	95	100	100	100	20	80	30	90	20	90	20	90	20	60	100	100	90	100	100	Oat, Wild plant response rating [1, 10]: 95; Plant response rating, Oat, Wild [1, 11]: 100; Oat, Wild plant response rating [1, 12]: 95; Kochia plant response rating (kochia (Kochia scoparia) [2]; [10]): 98; Plant response rating, Kochia (kochia (Kochia scoparia) [2]; [11]): 100; Kochia plant response rating (kochia (Kochia scoparia) [2]; [12]): 100; Plant response rating, Kochia (kochia (Kochia scoparia) [7]; [14]): 100; Kochia plant response rating (kochia (Kochia scoparia) [7]; [15]): 90; Plant response rating, Kochia (kochia (Kochia scoparia) [7]; [16]): 100; Plant response rating, Wheat [8, 17]: 20; Plant response rating, Wheat [8, 18]: 30
